From patent US20250092054A1, “FUSED PYRIDINES FOR CONTROLLING INVERTEBRATE PESTS” (FMC Corporation, priority 2021, published 2025)
Like-named read-outs stand apart in the source and are kept apart here.

Legend:
Type in all cases: in vivo
[1] = tested on: corn planthopper (Peregrinus maidis (Ashmead)); assay: Test C: control of corn planthopper through contact and/or systemic means; details: 144 h, corn plant post-infested with nymphs, assessed after 6 days; for mortality at 50 ppm: sprayed at 50 ppm
Procedure: (§1) Test compounds were formulated using a solution containing 10% acetone, 90% water and 300 ppm Activator 90® non-ionic surfactant (Loveland Products, Loveland, Colorado, USA). The formulated compounds were applied in 1 mL of liquid through an atomizer nozzle positioned 1.27 cm (0.5 inches) above the top of each test unit. Test compounds were sprayed at the rates indicated, and each test was replicated three times.
For evaluating control of corn planthopper (Peregrinus maidis (Ashmead)) through contact and/or systemic means, the test unit consisted of a small open container with a 3-4-day-old corn (maize) plant inside. White sand was added to the top of the soil prior to application of the test compound.
(§2) Test compounds were formulated and sprayed at 50 and 10 ppm. After spraying of the formulated test compound, the test units were allowed to dry for 1 h before they were post-infested with ˜15-20 nymphs (18-to-21-day-old). A black, screened cap was placed on the top of each test unit, and the test units were held for 6 days in a growth chamber at 22-24° C. and 50-70% relative humidity. Each test unit was then visually assessed for insect mortality.

[2] = tested on: potato leafhopper (Empoascafabae (Harris)); assay: Test D: control of potato leafhopper through contact and/or systemic means; details: 144 h
Procedure: as §1
For evaluating control of potato leafhopper (Empoascafabae (Harris)) through contact and/or systemic means, the test unit consisted of a small open container with a 5-6-day-old Soleil bean plant (primary leaves emerged) inside. White sand was added to the top of the soil, and one of the primary leaves was excised prior to application of the test compound.
as §2, with “1 hour” for “1 h”, “with 5 potato leafhoppers (18-to-21-day-old adults).” for “with ˜15-20 nymphs (18-to-21-day-old).”, “of the” for “of each”, “at 20°” for “at 22-24°”, “and 70%” for “and 50-70%”

[3] = tested on: green peach aphid (Myzus persicae (Sulzer)); assay: Test E: control of green peach aphid through contact and/or systemic means; details: 144 h
Procedure: as §1
For evaluating control of green peach aphid (Myzus persicae (Sulzer)) through contact and/or systemic means, the test unit consisted of a small open container with a 12-15-day-old radish plant inside. This was pre-infested by placing on a leaf of the test plant 30-40 aphids on a piece of leaf excised from a culture plant (cut-leaf method). The aphids moved onto the test plant as the leaf piece desiccated. After pre-infestation, the soil of the test unit was covered with a layer of sand.
Test compounds were formulated and sprayed at 50 and 10 ppm. After spraying of the formulated test compound, each test unit was allowed to dry for 1 hour and then a black, screened cap was placed on top. The test units were held for 6 days in a growth chamber at 19-21° C. and 50-70% relative humidity. Each test unit was then visually assessed for insect mortality.

[4] = tested on: cotton melon aphid (Aphis gossypii (Glover)); assay: Test F: control of cotton melon aphid through contact and/or systemic means; details: 144 h
Procedure: as §1
For evaluating control of cotton melon aphid (Aphis gossypii (Glover)) through contact and/or systemic means, the test unit consisted of a small open container with a 5-day-old okra plant inside. This was pre-infested with 30-40 insects on a piece of leaf according to the cut-leaf method, and the soil of the test unit was covered with a layer of sand.
Test compounds were formulated and sprayed at 50 and 10 ppm. After spraying, the test units were maintained in a growth chamber for 6 days at 19° C. and 70% relative humidity. Each test unit was then visually assessed for insect mortality.

[5] = sprayed at 10 ppm, Soleil bean plant post-infested with adults, assessed after 6 days, read-out: mortality
[6] = sprayed at 50 ppm, Soleil bean plant post-infested with adults, assessed after 6 days, read-out: mortality
[7] = sprayed at 50 ppm, pre-infested radish plant, assessed after 6 days, read-out: mortality
[8] = sprayed at 50 ppm, pre-infested okra plant, assessed after 6 days, read-out: mortality

CC(=O)NCc1ncc(C2=NOC(c3cccc(C(F)(F)F)c3)(C(F)(F)F)C2)c2ccoc12 (stereo not shown) [Compound 1, N-[[4-[4,5-dihydro-5-(trifluoromethyl)-5-[3-(trifluoromethyl)phenyl]-3-isoxazolyl]furo[2,3-c]pyridin-7-yl]methyl]acetamide]
≥ 80%: mortality at 50 ppm [1] | mortality at 10 ppm [2, 5] | mortality at 50 ppm [2, 6] | mortality at 50 ppm [3, 7] | mortality at 50 ppm [4, 8]

CNC(=O)[C@@H](C)NC(=O)c1cnc(C2=NOC(c3cc(Cl)cc(Cl)c3)(C(F)(F)F)C2)c2sccc12 (stereo partly drawn) [Compound 7, 7-[5-(3,5-dichlorophenyl)-4,5-dihydro-5-(trifluoromethyl)-3-isoxazolyl]-N-[(1R)-1-methyl-2-(methylamino)-2-oxo-ethyl]thieno[2,3-c]pyridine-4-carboxamide]
≥ 80%: mortality at 10 ppm [2] | mortality at 50 ppm [2] | mortality at 50 ppm ([3]; in Raphanus sativus) | mortality at 50 ppm [4]

O=C(NC1CC1)c1cnc(C2=NOC(c3cc(Cl)cc(Cl)c3)(C(F)(F)F)C2)c2sccc12 (stereo not shown) [Compound 11, N-cyclopropyl-7-[5-(3,5-dichlorophenyl)-4,5-dihydro-5-(trifluoromethyl)-3-isoxazolyl]thieno[2,3-c]pyridine-4-carboxamide]
≥ 80%: mortality at 10 ppm [2] | mortality at 50 ppm [2]

O=C(NC1CC1)c1ncc(C2=NOC(c3cc(Cl)c(F)c(Cl)c3)(C(F)(F)F)C2)c2ccoc12 (stereo not shown) [Compound 13, N-cyclopropyl-4-[5-(3,5-dichloro-4-fluorophenyl)-4,5-dihydro-5-(trifluoro-methyl)-3-isoxazolyl]furo[2,3-c]pyridine-7-carboxamide]
≥ 80%: mortality at 10 ppm [2] | mortality at 50 ppm [2] | mortality at 50 ppm ([3]; in Raphanus sativus) | mortality at 50 ppm [4]

O=C(NCC1CC1)c1ncc(C2=NOC(c3cc(Cl)c(F)c(Cl)c3)(C(F)(F)F)C2)c2ccoc12 (stereo not shown) [Compound 14, N-(cyclopropylmethyl)-4-[5-(3,5-dichloro-4-fluorophenyl)-4,5-dihydro-5-(trifluoromethyl)-3-isoxazolyl]furo[2,3-c]pyridine-7-carboxamide]
≥ 80%: mortality at 10 ppm [2] | mortality at 50 ppm [2]

CCC(=O)NCc1ncc(C2=NOC(c3cccc(C(F)(F)F)c3)(C(F)(F)F)C2)c2ccoc12 (stereo not shown) [Compound 23, N-[[4-[4,5-dihydro-5-(trifluoromethyl)-5-[3-(trifluoromethyl)phenyl]-3-isoxazolyl]furo[2,3-c]pyridin-7-yl]methyl]propanamid]
≥ 80%: mortality at 10 ppm ([1]; sprayed at 10 ppm) | mortality at 50 ppm [1] | mortality at 10 ppm [2, 5] | mortality at 50 ppm [2, 6] | mortality at 10 ppm ([3]; sprayed at 10 ppm, pre-infested radish plant, assessed after 6 days) | mortality at 50 ppm [3, 7] | mortality at 10 ppm ([4]; sprayed at 10 ppm, pre-infested okra plant, assessed after 6 days) | mortality at 50 ppm [4, 8]

O=C(NC1CC1)c1cnc(C2=NOC(c3cc(Cl)cc(Cl)c3)(C(F)(F)F)C2)c2ccsc12 (stereo not shown) [Compound 26, N-cyclopropyl-4-[5-(3,5-dichlorophenyl)-4,5-dihydro-5-(trifluoromethyl)-3-isoxazolyl]thieno[3,2-c]pyridine-7-carboxamide]
≥ 80%: mortality at 50 ppm [2]

O=C(NC1CSC1)c1cnc(C2=NOC(c3cc(Cl)cc(Cl)c3)(C(F)(F)F)C2)c2ccsc12 (stereo not shown) [Compound 27, 4-[5-(3,5-dichlorophenyl)-4,5-dihydro-5-(trifluoromethyl)-3-isoxazolyl]-N-3-thietanylthieno[3,2-c]pyridine-7-carboxamide]
≥ 80%: mortality at 50 ppm [2]

CNC(=O)[C@@H](C)NC(=O)c1ncc(C2=NOC(c3cc(Cl)c(F)c(Cl)c3)(C(F)(F)F)C2)c2c1CCC2 (stereo partly drawn) [Compound 30, 4-[5-(3,5-dichloro-4-fluorophenyl)-4,5-dihydro-5-(trifluoromethyl)-3-isoxazolyl]-6,7-dihydro-N-[(1R)-1-methyl-2-(methylamino)-2-oxoethyl]-5H-cyclopenta[c]pyridine-1-carboxamide]
≥ 80%: mortality at 50 ppm [4]
